Experimental data from BindingDB's records for doi:10.1021/cb900083m (Genentech, 2009).

Assays:
[1] = Samples for fluorescence polarization affinity measurements were prepared by addition of serial dilutions of […] to each well containing antagonist and polarization probe in the buffer. Samples were read after 30-min incubation. Fluorescence polarization values were plotted as a function of the antagonist concentra; settings: pH 7.2
[2] = target: T1, Baculoviral IAP repeat-containing protein 3 [255-322] (Homo sapiens, UniProt Q13489); assay: Fluorescence Polarization Affinity Measurements; settings: pH 7.2; 22 °C
T1 construct: 255-322
Description: (§1) Samples for fluorescence polarization affinity measurements were prepared by addition of serial dilutions of […] to each well containing antagonist and polarization probe in the buffer. Samples were read after 30-min incubation. Fluorescence polarization values were plotted as a function of the antagonist concentration, and the IC50 values were obtained by fitting the data to a four-parameter equation using KaleidaGraph software. Ki values for the antagonists were determined from the IC50 values.

[3] = target: T2, Baculoviral IAP repeat-containing protein 2 [269-336] (Homo sapiens, UniProt Q13490); assay: Fluorescence Polarization Affinity Measurements; settings: pH 7.2; 22 °C
T2 construct: 269-336
Description: as §1

T2 sequence (Q13490 269-336): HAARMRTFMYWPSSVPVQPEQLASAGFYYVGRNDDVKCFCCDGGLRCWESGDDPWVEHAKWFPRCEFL
T1 sequence (Q13489 255-322): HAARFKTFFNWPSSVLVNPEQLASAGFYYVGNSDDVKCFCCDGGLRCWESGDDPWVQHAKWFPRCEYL

SMILES | Ki [1] [nM] | Ki [2] [nM] | Ki [3] [nM]
CN[C@@H](C)C(=O)N[C@H](C(=O)N1CCC[C@H]1c1nc2c(-c3ccccc3Cl)nccc2s1)C1CCOCC1 [PS-1] | 33 | 96 | 36
CN[C@@H](C)C(=O)N[C@H](C(=O)N1CCC[C@H]1C(=O)Nc1ccccc1-c1ncccn1)C1CCCCC1 [CS-2] | 5050 | 114 | 37
CN[C@@H](C)C(=O)N[C@H](C(=O)N1CC[C@H](C)[C@H]1C(=O)Nc1cc(C)nn1-c1ccccc1)C1CCCCC1 [CS-1] | 2400 | 52 | 10
CN[C@H](C)C(=O)N[C@@H](C(=O)N1CCC[C@@H]1c1nc2c(-c3ccccc3Cl)nccc2s1)C1CCOCC1 [ent-PS-1] | > 34000 | > 34000 | > 34000
